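Where inhibition never reached the appropriate level, the endpoint shown equals the highest concentration tested. Otherwise, values were interpolated linearly from a five-concentration, 48-hour dose response in 96-well plates. At the TGI there is no net growth.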
Key:
Experiment in all cases: NCI anticancer screen, dose series, 48 h
CAKI-1 renal = tested on: CAKI-1 renal
SW-620 colon = tested on: SW-620 colon
OVCAR-5 ovarian = tested on: OVCAR-5 ovarian
SN12C renal = tested on: SN12C renal
786-0 renal = tested on: 786-0 renal
ACHN renal = tested on: ACHN renal
SF-539 CNS = tested on: SF-539 CNS
HCT-116 colon = tested on: HCT-116 colon
M14 melanoma = tested on: M14 melanoma
SNB-19 CNS = tested on: SNB-19 CNS
UACC-257 melanoma = tested on: UACC-257 melanoma
TK-10 renal = tested on: TK-10 renal
HCC-2998 colon = tested on: HCC-2998 colon
U251 CNS = tested on: U251 CNS
K-562 leukemia = tested on: K-562 leukemia
CCRF-CEM leukemia = tested on: CCRF-CEM leukemia
SNB-75 CNS = tested on: SNB-75 CNS
MDA-MB-231 breast = tested on: MDA-MB-231 breast
MDA-N = tested on: MDA-N
UO-31 renal = tested on: UO-31 renal
EKVX NSCLC = tested on: EKVX NSCLC
MOLT-4 leukemia = tested on: MOLT-4 leukemia
RXF 393 renal = tested on: RXF 393 renal
SK-MEL-5 melanoma = tested on: SK-MEL-5 melanoma
RPMI-8226 leukemia = tested on: RPMI-8226 leukemia
SK-OV-3 ovarian = tested on: SK-OV-3 ovarian
DU-145 prostate = tested on: DU-145 prostate
SK-MEL-28 melanoma = tested on: SK-MEL-28 melanoma
A549 NSCLC = tested on: A549 NSCLC
NCI-H226 lung = tested on: NCI-H226 lung
SF-295 CNS = tested on: SF-295 CNS
HOP-92 NSCLC = tested on: HOP-92 NSCLC
UACC-62 melanoma = tested on: UACC-62 melanoma
A498 renal = tested on: A498 renal
LOX IMVI melanoma = tested on: LOX IMVI melanoma
PC-3 prostate = tested on: PC-3 prostate
NCI/ADR-RES ovarian = tested on: NCI/ADR-RES ovarian
COLO 205 colon = tested on: COLO 205 colon
HOP-62 NSCLC = tested on: HOP-62 NSCLC
OVCAR-3 ovarian = tested on: OVCAR-3 ovarian
MCF7 breast = tested on: MCF7 breast
MDA-MB-435 = tested on: MDA-MB-435
T-47D breast = tested on: T-47D breast
OVCAR-4 ovarian = tested on: OVCAR-4 ovarian
HS 578T breast = tested on: HS 578T breast
SF-268 CNS = tested on: SF-268 CNS
HCT-15 colon = tested on: HCT-15 colon
SK-MEL-2 melanoma = tested on: SK-MEL-2 melanoma
KM12 colon = tested on: KM12 colon
MALME-3M melanoma = tested on: MALME-3M melanoma
IGROV1 ovarian = tested on: IGROV1 ovarian
HL-60(TB) leukemia = tested on: HL-60(TB) leukemia
NCI-H23 lung = tested on: NCI-H23 lung
HT29 colon = tested on: HT29 colon
SR leukemia = tested on: SR leukemia
NCI-H460 lung = tested on: NCI-H460 lung
BT-549 breast = tested on: BT-549 breast
NCI-H522 lung = tested on: NCI-H522 lung
OVCAR-8 ovarian = tested on: OVCAR-8 ovarian

COc1cccc([C@@H]2C/C(=N\NC(=O)C(=O)N[C@@H](C)c3ccccc3)c3cc4c(cc3N2)OCO4)c1
TGI (CAKI-1 renal): > 100 µM
TGI (SW-620 colon): > 100 µM
TGI (OVCAR-5 ovarian): > 100 µM
TGI (SN12C renal): > 100 µM
TGI (786-0 renal): > 100 µM
TGI (ACHN renal): > 100 µM
TGI (SF-539 CNS): > 100 µM
TGI (HCT-116 colon): > 100 µM
TGI (M14 melanoma): > 100 µM
TGI (SNB-19 CNS): > 100 µM
TGI (UACC-257 melanoma): > 100 µM
TGI (TK-10 renal): > 100 µM
TGI (HCC-2998 colon): > 100 µM
TGI (U251 CNS): > 100 µM
TGI (K-562 leukemia): > 100 µM
TGI (CCRF-CEM leukemia): > 100 µM
TGI (SNB-75 CNS): > 100 µM
TGI (MDA-MB-231 breast): > 100 µM
TGI (MDA-N): 28.4 µM
TGI (UO-31 renal): > 100 µM
TGI (EKVX NSCLC): > 100 µM
TGI (MOLT-4 leukemia): > 100 µM
TGI (RXF 393 renal): > 100 µM
TGI (SK-MEL-5 melanoma): 65.3 µM
TGI (RPMI-8226 leukemia): > 100 µM
TGI (SK-OV-3 ovarian): > 100 µM
TGI (DU-145 prostate): > 100 µM
TGI (SK-MEL-28 melanoma): > 100 µM
TGI (A549 NSCLC): > 100 µM
TGI (NCI-H226 lung): > 100 µM
TGI (SF-295 CNS): > 100 µM
TGI (HOP-92 NSCLC): > 100 µM
TGI (UACC-62 melanoma): > 100 µM
TGI (A498 renal): > 100 µM
TGI (LOX IMVI melanoma): > 100 µM
TGI (PC-3 prostate): > 100 µM
TGI (NCI/ADR-RES ovarian): > 100 µM
TGI (COLO 205 colon): 68.8 µM
TGI (HOP-62 NSCLC): > 100 µM
TGI (OVCAR-3 ovarian): > 100 µM
TGI (MCF7 breast): > 100 µM
TGI (MDA-MB-435): 17.2 µM
TGI (T-47D breast): > 100 µM
TGI (OVCAR-4 ovarian): > 100 µM
TGI (HS 578T breast): > 100 µM
TGI (SF-268 CNS): > 100 µM
TGI (HCT-15 colon): > 100 µM
TGI (SK-MEL-2 melanoma): > 100 µM
TGI (KM12 colon): > 100 µM

[N-]=[N+]=CC(=O)OC1CCc2ccccc21 (configuration not stated)
TGI (CAKI-1 renal): 52.5 µM
TGI (SW-620 colon): > 100 µM
TGI (OVCAR-5 ovarian): > 100 µM
TGI (SN12C renal): > 100 µM
TGI (786-0 renal): > 100 µM
TGI (MALME-3M melanoma): > 100 µM
TGI (IGROV1 ovarian): > 100 µM
TGI (ACHN renal): 30.3 µM
TGI (HL-60(TB) leukemia): > 100 µM
TGI (HCT-116 colon): > 100 µM
TGI (NCI-H23 lung): > 100 µM
TGI (SNB-19 CNS): > 100 µM
TGI (HT29 colon): > 100 µM
TGI (UACC-257 melanoma): > 100 µM
TGI (TK-10 renal): > 100 µM
TGI (HCC-2998 colon): > 100 µM
TGI (U251 CNS): > 100 µM
TGI (K-562 leukemia): > 100 µM
TGI (MDA-MB-231 breast): > 100 µM
TGI (MDA-N): > 100 µM
TGI (SR leukemia): > 100 µM
TGI (UO-31 renal): 29 µM
TGI (EKVX NSCLC): > 100 µM
TGI (NCI-H460 lung): > 100 µM
TGI (RXF 393 renal): > 100 µM
TGI (SK-MEL-5 melanoma): > 100 µM
TGI (RPMI-8226 leukemia): > 100 µM
TGI (SK-OV-3 ovarian): > 100 µM
TGI (DU-145 prostate): 48.7 µM
TGI (BT-549 breast): > 100 µM
TGI (SK-MEL-28 melanoma): > 100 µM
TGI (NCI-H522 lung): > 100 µM
TGI (NCI-H226 lung): > 100 µM
TGI (SF-295 CNS): > 100 µM
TGI (HOP-92 NSCLC): > 100 µM
TGI (UACC-62 melanoma): > 100 µM
TGI (A498 renal): > 100 µM
TGI (LOX IMVI melanoma): > 100 µM
TGI (PC-3 prostate): > 100 µM
TGI (COLO 205 colon): > 100 µM
TGI (HOP-62 NSCLC): > 100 µM
TGI (OVCAR-3 ovarian): > 100 µM
TGI (MCF7 breast): > 100 µM
TGI (MDA-MB-435): > 100 µM
TGI (OVCAR-4 ovarian): > 100 µM
TGI (SF-268 CNS): > 100 µM
TGI (HCT-15 colon): > 100 µM
TGI (SK-MEL-2 melanoma): > 100 µM

COc1ccc2c(c1)OCC1=C2Oc2ccccc2C1
TGI (CAKI-1 renal): > 100 µM
TGI (SW-620 colon): > 100 µM
TGI (OVCAR-5 ovarian): 88.8 µM
TGI (SN12C renal): > 100 µM
TGI (786-0 renal): > 100 µM
TGI (MALME-3M melanoma): > 100 µM
TGI (IGROV1 ovarian): > 100 µM
TGI (ACHN renal): > 100 µM
TGI (SF-539 CNS): 95.7 µM
TGI (HL-60(TB) leukemia): > 100 µM
TGI (HCT-116 colon): > 100 µM
TGI (NCI-H23 lung): > 100 µM
TGI (M14 melanoma): > 100 µM
TGI (HT29 colon): 90 µM
TGI (UACC-257 melanoma): 87.6 µM
TGI (TK-10 renal): > 100 µM
TGI (OVCAR-8 ovarian): > 100 µM
TGI (HCC-2998 colon): 54 µM
TGI (U251 CNS): > 100 µM
TGI (K-562 leukemia): > 100 µM
TGI (SNB-75 CNS): 42.5 µM
TGI (MDA-MB-231 breast): > 100 µM
TGI (MDA-N): 71.1 µM
TGI (SR leukemia): > 100 µM
TGI (UO-31 renal): > 100 µM
TGI (EKVX NSCLC): > 100 µM
TGI (MOLT-4 leukemia): 85.5 µM
TGI (SK-MEL-5 melanoma): 28.3 µM
TGI (RPMI-8226 leukemia): > 100 µM
TGI (SK-OV-3 ovarian): > 100 µM
TGI (DU-145 prostate): > 100 µM
TGI (BT-549 breast): 71.5 µM
TGI (A549 NSCLC): > 100 µM
TGI (NCI-H522 lung): 70.2 µM
TGI (NCI-H226 lung): > 100 µM
TGI (SF-295 CNS): > 100 µM
TGI (UACC-62 melanoma): > 100 µM
TGI (A498 renal): > 100 µM
TGI (LOX IMVI melanoma): 55.9 µM
TGI (PC-3 prostate): > 100 µM
TGI (NCI/ADR-RES ovarian): > 100 µM
TGI (COLO 205 colon): 49.2 µM
TGI (HOP-62 NSCLC): > 100 µM
TGI (OVCAR-3 ovarian): > 100 µM
TGI (MDA-MB-435): 84.2 µM
TGI (T-47D breast): > 100 µM
TGI (OVCAR-4 ovarian): > 100 µM
TGI (SF-268 CNS): > 100 µM
TGI (HCT-15 colon): > 100 µM
TGI (SK-MEL-2 melanoma): 77.5 µM
TGI (KM12 colon): > 100 µM

O=C(CC(C(=O)c1cccs1)c1ccsc1)c1ccc(Cl)cc1 (configuration not stated)
TGI (CAKI-1 renal): > 100 µM
TGI (SW-620 colon): > 100 µM
TGI (OVCAR-5 ovarian): > 100 µM
TGI (SN12C renal): > 100 µM
TGI (786-0 renal): > 100 µM
TGI (MALME-3M melanoma): > 100 µM
TGI (IGROV1 ovarian): > 100 µM
TGI (ACHN renal): > 100 µM
TGI (SF-539 CNS): > 100 µM
TGI (HL-60(TB) leukemia): > 100 µM
TGI (HCT-116 colon): > 100 µM
TGI (NCI-H23 lung): > 100 µM
TGI (M14 melanoma): > 100 µM
TGI (SNB-19 CNS): > 100 µM
TGI (HT29 colon): > 100 µM
TGI (UACC-257 melanoma): > 100 µM
TGI (TK-10 renal): > 100 µM
TGI (OVCAR-8 ovarian): > 100 µM
TGI (HCC-2998 colon): > 100 µM
TGI (U251 CNS): > 100 µM
TGI (K-562 leukemia): > 100 µM
TGI (CCRF-CEM leukemia): > 100 µM
TGI (SNB-75 CNS): > 100 µM
TGI (MDA-MB-231 breast): > 100 µM
TGI (MDA-N): > 100 µM
TGI (SR leukemia): > 100 µM
TGI (UO-31 renal): > 100 µM
TGI (EKVX NSCLC): > 100 µM
TGI (MOLT-4 leukemia): > 100 µM
TGI (NCI-H460 lung): > 100 µM
TGI (SK-MEL-5 melanoma): > 100 µM
TGI (RPMI-8226 leukemia): > 100 µM
TGI (SK-OV-3 ovarian): > 100 µM
TGI (DU-145 prostate): > 100 µM
TGI (SK-MEL-28 melanoma): > 100 µM
TGI (A549 NSCLC): > 100 µM
TGI (NCI-H226 lung): > 100 µM
TGI (SF-295 CNS): > 100 µM
TGI (UACC-62 melanoma): > 100 µM
TGI (A498 renal): > 100 µM
TGI (LOX IMVI melanoma): > 100 µM
TGI (PC-3 prostate): > 100 µM
TGI (NCI/ADR-RES ovarian): > 100 µM
TGI (COLO 205 colon): > 100 µM
TGI (HOP-62 NSCLC): > 100 µM
TGI (MCF7 breast): > 100 µM
TGI (MDA-MB-435): > 100 µM
TGI (T-47D breast): > 100 µM
TGI (OVCAR-4 ovarian): > 100 µM
TGI (HS 578T breast): > 100 µM
TGI (SF-268 CNS): > 100 µM
TGI (HCT-15 colon): > 100 µM
TGI (SK-MEL-2 melanoma): > 100 µM
TGI (KM12 colon): > 100 µM

From PubChem BioAssay (NCI)
